{
  "source": "patent US10093611B2",
  "about": "“Benzocycloalkenes as antifungal agents” (Bayer Intellectual Property GmbH, priority 2010, dated 2018)",
  "data": [
    {"tested_on": "Uromyces appendiculatus", "experiment": "In vivo preventive test on Uromyces appendiculatus (beans)", "conditions": "100 ppm of active ingredient, evaluated 10 days after inoculation", "method": "EXAMPLE I: IN VIVO PREVENTIVE TEST ON UROMYCES APPENDICULATUS (BEANS) Solvent: 24.5 parts by weight of acetone • 24.5 parts by weight of N,N-dimethylacetamide Emulsifier: 1 part by weight of alkylaryl polyglycol ether To produce a suitable preparation of active compound, 1 part by weight of active compound is mixed with the stated amounts of solvent and emulsifier, and the concentrate is diluted with water to the desired concentration. To test for preventive activity, young plants are sprayed with the preparation of active compound at the stated rate of application. After the spray coating has dried on, the plants are inoculated with an aqueous spore suspension of the causal agent of bean rust (Uromyces appendiculatus) and then remain for 1 day in an incubation cabinet at approximately 20° C. and a relative atmospheric humidity of 100%. The plants are then placed in a greenhouse at approximately 21° C. and a relative atmospheric humidity of approximately 90%. The test is evaluated 10 days after the inoculation. 0% means an efficacy which corresponds to that of the untreated control, while an efficacy of 100% means that no disease is observed. Under these conditions, excellent (at least 95%) to total protection is observed at a dose of 100 ppm of active ingredient with the following compounds from table I: […]", "units": {"Efficacy": "%"}, "values": [
      {"smiles": "Cc1nn(C)c(F)c1C(=O)N(C1CC1)C(C)C1Cc2ccccc2C1", "note": "(stereo not drawn) [Example 11]", "Efficacy": 100},
      {"smiles": "CCc1nn(C)c(F)c1C(=O)N(C1CC1)C(C)C1Cc2ccccc2C1", "note": "(stereo not drawn) [Example 12]", "Efficacy": 100},
      {"smiles": "CC(C1Cc2ccccc2C1)N(C(=O)c1cn(C)nc1C(F)F)C1CC1", "note": "(stereo not drawn) [Example 13]", "Efficacy": 98}
    ]}
  ]
}
